Literature values, collected in patent US11304990B2, “Use of known compounds—intracellular infections” (ISR IMMUNE SYSTEM REGULATION HOLDING AB (PUBL), priority 2017, dated 2022).

Tests used:
[1] = test system: pituitary type I GnRH receptors
CD4 T-lymphocyte = details: diabetes-prone BB rats exhibiting an AIDS-like lymphocyte profile

pyroGlu-His-Trp-Ser-Tyr-Gly-Leu-Arg-Pro-Gly-NH2 [GnRH I, decapeptide gonadotropin releasing hormone]
fold higher affinity, pituitary vs breast cancer cell receptors ([1]; central pituitary binding compared with breast cancer cells): 1000 fold | Kd ([1]; central pituitary binding, read-out: binding affinity (Kd)): 4.8 nM | CD4 T-lymphocyte numbers (CD4 T-lymphocyte): increased
